Data: patent publication US8871681B2, “Herbicidal compositions comprising 4-amino-3-chloro-5-fluoro-6-(4-chloro-2-fluoro-3-methoxyphenyl) pyridine-2-carboxylic acid or a derivative thereof and certain sulfonylureas” (Dow AgroSciences LLC, priority 2012, dated 2014)

Key:
[1] = system: LAMPU (Lamium purpureum, purple deadnettle); assay: Post-emergence foliar-applied weed control in cereal crops, greenhouse (Example III); type: in vivo, Lamium purpureum (L.)
Procedure: Seeds of the desired test plant species were planted in Sun Gro MetroMix® 306 planting mixture, which typically has a pH of 6.0 to 6.8 and an organic matter content of about 30 percent, in plastic pots with a surface area of 103.2 square centimeters (cm^2). When required to ensure good germination and healthy plants, a fungicide treatment and/or other chemical or physical treatment was applied. The plants were grown for 7-36 days in a greenhouse with an approximate 14 hour photoperiod which was maintained at about 18° C. during the day and 17° C. during the night. Nutrients and water were added on a regular basis and supplemental lighting was provided with overhead metal halide 1000-Watt lamps as necessary. The plants were employed for testing when they reached the second or third true leaf stage.
Treatments consisted of the benzyl ester of 4-amino-3-chloro-5-fluoro-6-(4-chloro-2-fluoro-3-methoxy-phenyl)pyridine-2-carboxylic acid (Compound A), formulated as an SC (suspension concentrate), and a second cereal herbicide alone and in combination.
Measured aliquot of benzyl ester of 4-amino-3-chloro-5-fluoro-6-(4-chloro-2-fluoro-3-methoxy-phenyl)pyridine-2-carboxylic acid (Compound A) was placed in 25 milliliter (mL) glass vials and diluted in a volume of 1.25% (v/v) Agri-dex crop oil concentrated to obtain stock solutions. Compound requirements are based upon a 12 mL application volume at a rate of 187 liters per hectare (L/ha). Spray solutions of the second cereal herbicide and experimental compound mixtures were prepared by adding the stock solutions to the appropriate amount of dilution solution to form 12 mL spray solution with active ingredients in two- and three-way combinations. Formulated compounds were applied to the plant material with an overhead Mandel track sprayer equipped with an 8002E nozzle calibrated to deliver 187 L/ha over an application area of 0.503 square meters (m^2) at a spray height of 18 inches (46 cm) above average plant canopy. Control plants were sprayed in the same manner with the solvent blank.
The treated plants and control plants were placed in a greenhouse as described above and watered by sub-irrigation to prevent wash-off of the test compounds. After 20-22 days, the condition of the test plants as compared with that of the control plants was determined visually and scored on a scale of 0 to 100 percent where 0 corresponds to no injury and 100 corresponds to complete kill.
Colby's equation was used to determine the herbicidal effects expected from the mixtures (Colby, S. R. 1967. Calculation of the synergistic and antagonistic response of herbicide combinations. Weeds 15:20-22.).
The following equation was used to calculate the expected activity of mixtures containing two active ingredients, A and B: Expected=A+B−(A×B/100)

[2] = system: ECHCG (Echinochloa crus-galli, barnyardgrass); assay: In-water applied weed control, transplanted paddy rice, greenhouse (Example II); type: in vivo, Echinochloa crus-galli (L.) Beauv.
Procedure: (§1) Weed seeds or nutlets of the desired test plant species were planted in puddled soil (mud) prepared by mixing a shredded, non-sterilized mineral soil (50.5 percent silt, 25.5 percent clay, and 24 percent sand, with a pH of about 7.6 and an organic matter content of about 2.9 percent) and water at a 1:1 volumetric ratio. The prepared mud was dispensed in 365 mL aliquots into 16-ounce (oz.) non-perforated plastic pots with a surface area of 86.59 square centimeters (cm^2) leaving a headspace of 3 centimeters (cm) in each pot. Rice seeds were planted in Sun Gro MetroMix® 306 planting mixture, which typically has a pH of 6.0 to 6.8 and an organic matter content of about 30 percent, in plastic plug trays. Seedlings at the second or third leaf stage of growth were transplanted into 860 mL of mud contained in 32-oz. non-perforated plastic pots with a surface area of 86.59 cm^2 4 days prior to herbicide application. The paddy was created by filling the headspace of the pots with 2.5 to 3 cm of water. When required to ensure good germination and healthy plants, a fungicide treatment and/or other chemical or physical treatment was applied. The plants were grown for 4-22 days in a greenhouse with an approximate 14 h photoperiod which was maintained at about 29′C during the day and 26° C. during the night. Nutrients were added as Osmocote® (19:6:12, N:P:K+minor nutrients) at 2 g per 16-oz. pot and 4 g per 32-oz. pot. Water was added on a regular basis to maintain the paddy flood, and supplemental lighting was provided with overhead metal halide 1000-Watt lamps as necessary. The plants were employed for testing when they reached the first through fourth true leaf stage.
(§2) Treatments consisted of the acid or esters of 4-amino-3-chloro-5-fluoro-6-(4-chloro-2-fluoro-3-methoxy-phenyl)pyridine-2-carboxylic acid (compound A) each formulated as an SC and various herbicidal components alone and in combination. Forms of compound A were applied on an acid equivalent basis.
(§3) Other herbicidal components were applied on an active ingredient basis and included acetolactate synthase (ALS)-inhibiting herbicides (sulfonylurea chemical class), azimsulfuron formulated as Gulliver®, bensulfuron-methyl formulated as Londax® 60DF, cyclosulfamuron (technical grade materail), ethoxysulfuron formulated as Sunrice® 15 WDG, flucetosulfuron formulated as Sukedachi® 1KG G, imazosulfuron formulated as Brazzos®, metsulfuron-methyl formulated as Lorate®, nicosulfuron formulated as Accent®, orthosulfamuron formulated as Strada® WG, propyrisulfuron formulated as Zeta One®, and rimsulfuron formulated as Matrix® WG.
(§4) Treatment requirements for each compound or herbicidal component were calculated based upon the rates being tested, the concentration of active ingredient or acid equivalent in the formulation, an application volume of 2 mL per component per pot, and an application area of 86.59 cm^2 per pot.
(§5) For formulated compounds, a measured amount was placed in an individual 100 or 200 mL glass vial and was dissolved in a volume of 1.25% (v/v) Agri-Dex® crop oil concentrate to obtain application solutions.
For technical grade compounds, a weighed amount was placed in an individual 100 to 200 mL glass vial and was dissolved in a volume of acetone to obtain concentrated stock solutions. […]

[3] = system: ECHCO (Echinochloa colona, junglerice); assay: as above; type: in vivo, Echinochloa colona (L.) Link
Procedure: as §1, §2, §3, §4, §5
For technical grade compounds, a weighed amount was placed in an individual 100 to 200 mL glass vial and was dissolved in a volume of acetone to obtain concentrated stock solutions. […] The concentrated stock solutions obtained were diluted with an equivalent volume of an aqueous mixture containing 2.5% (v/v) crop oil concentrate so that the final application solutions contained 1.25% (v/v) crop oil concentrate.
Applications were made by injecting with a pipetter appropriate amounts of the application solutions, individually and sequentially, into the aqueous layer of the paddy. Control plants were treated in the same manner with the solvent blank. Applications were made so that all treated plant material received the same concentrations of acetone and crop oil concentrate. […]

## COc1c(Cl)ccc(-c2nc(C(=O)OCc3ccccc3)c(Cl)c(N)c2F)c1F [Compound A Benzyl Ester]
[1]; Table 51, after 20-22 days, 8.75 gai/ha alone
  Weed Control LAMPU Obs: 83%
[1]; Table 57, after 20-22 days, 8.75 gai/ha Compound A Benzyl Ester alone
  Weed Control LAMPU Obs: 83%
[2]; Table 50, 4.38 gae/ha alone
  Visual Weed Control (%) - 20 DAA ECHCG Obs: 15%
[2]; Table 50, 8.75 gae/ha alone
  Visual Weed Control (%) - 20 DAA ECHCG Obs: 20%
[2]; Table 50, 17.5 gae/ha alone
  Visual Weed Control (%) - 20 DAA ECHCG Obs: 40%
[3]; Table 39, 4.38 gae/ha alone
  Visual Weed Control (%) - 21 DAA ECHCO Obs: 45%
[3]; Table 39, 8.75 gae/ha alone
  Visual Weed Control (%) - 21 DAA ECHCO Obs: 30%
[3]; Table 39, 17.5 gae/ha alone
  Visual Weed Control (%) - 21 DAA ECHCO Obs: 95%
